Data reported in patent US20260132165A1, “MODIFIED NUCLEOSIDE ANALOGUE AND USE THEREOF, AND NUCLEOSIDE ANALOGUE-CONTAINING DOUBLE-STRANDED OLIGONUCLEOTIDE AND USE THEREOF” (RIGERNA THERAPEUTICS (BEIJING) CO., LTD., priority 2023, published 2026).

Key:
[1] = system: target gene SOD1; experiment: Test Example 10: inhibitory activity on SOD1 in mouse adipose and heart tissues by different routes of administration; assay type: in vivo, C57BL/6j mice; details: D14; for inhibitory activity by different routes of administration: subcutaneous vs tail vein injection, same dose 5 mg/kg; for Subcutaneous % Mean value of inhibition rate: subcutaneous administration 5 mg/kg; for Intravenous % Mean value of inhibition rate: tail vein injection 5 mg/kg
Protocol: (§1) RNA extraction: the above tissue samples were taken out from the RNAlater, and smashed for 60 s in Tissuelyser type II full-automatic tissue homogenizer, and total RNAs of various tissue samples were extracted using the full-automatic nucleic acid extraction instrument and the nucleic acid extraction kit from Zhejiang Hanwei Science and Technology Co. Ltd. according to methods described in instructions.
(§2) Reverse transcription reaction: 1 μg of the extracted total RNAs of the tissue samples were taken, and configured into 20 μL of reverse transcription system according to a method described in kit instructions by using a reverse transcription kit (Reverse Transcription System, A3500) from Promega Corporation and selecting Oligo (dT)15 reverse transcription primers, and the reverse transcription reaction was completed. After the reaction was ended, 80 μL of RNase-Free water was added into the reverse transcription system to provide cDNA solution for Real-time PCR detection.
(§3) Real-time PCR detection: 20 μL of Real-time PCR reaction system per PCR detection well was configured according to a method described in kit instructions using SYBR™ Select Master Mix (Catalog number: 4472908) reagent from ABI company. Each detection system contained 5 μL of cDNA template obtained from the above reverse transcription reaction, 10 μL of SYBR™ Select Master Mix, 0.5 μL of 10 μM upstream primers, 0.5 μL of 10 μM downstream primers, and 4 μL of RNase-Free H2O. The configured reaction system was subjected to Real-time PCR amplification on ABI StepOnePlus PCR instrument by a three-step method, wherein an amplification procedure was pre-denaturation at 95° C. for 10 min, then denaturation at 95° C. for 30 s, annealing at 60° C. for 30 s, and extension at 72° C. for 30 s; and processes of denaturation, annealing, and extension were repeated for 40 cycles. Gene expression differences were calculated by the ΔΔCt method after completion of the procedure.
(§4) In the real-time fluorescence quantitative PCR method, relative quantitative calculation of remaining expression level and inhibition rate of gene mRNA of interest in various test groups was performed by the ΔΔCt method, and the calculation method is as follows:
The present test example evaluated, by an evaluation method for inhibitory activity on a target gene in mice, the inhibitory activity of siRNA sequence RZ899090 with the sense strand with the NM073 conjugation at Position 4 on the target gene SOD1 of interest in mice.
6-8 Week-old C57BL/6j mice were randomly grouped by body weight, 5 per group, 4 groups in total. Mice in one of the groups were dosed with the above siRNA conjugate by tail vein injection, with an administration dose of 5 mg/kg, and an administration volume of 150 μL. One group was dosed with the above siRNA conjugate by subcutaneous administration, with an administration dose of 5 mg/kg, and an administration volume of 5 ml/kg. The other two groups were PBS control groups, and were respectively administered with the same volume of siRNA conjugate-free PBS solution by tail vein injection and subcutaneous administration. The day of administration was recorded as D0, and the mice were sacrificed on D14 after administration. Paragonadal fat and heart tissues were respectively taken and stored in the RNAlater. RNA extraction, reverse transcription, and real-time fluorescence quantitative detection were performed on various tissues according to the above method, and gene expression differences were calculated by the above ΔΔCt method.

[2] = system: target gene SOD1; experiment: Test Example 11: inhibitory activity at different administration doses on SOD1 in mouse adipose and heart tissues; assay type: in vivo, C57BL/6j mice; details: D14; for 0.5 mg/kg % Mean value of inhibition rate: tail vein injection 0.5 mg/kg; for 2 mg/kg % Mean value of inhibition rate: tail vein injection 2 mg/kg; for 5 mg/kg % Mean value of inhibition rate: tail vein injection 5 mg/kg; for dose dependency of inhibitory activity: 0.5, 2, 5 mg/kg tail vein
Protocol: as §1, §2, §3, §4
The present test example evaluated, by an evaluation method for inhibitory activity on a target gene in mice, the inhibitory activity of siRNA sequence RZ899090 with the sense strand with the NM073 conjugation at Position 4 at different administration doses on the target gene SOD1 of interest in mice.
6-8 Week-old C57BL/6j mice were randomly grouped by body weight, 5 per group, 4 groups in total. Mice were administered with the above siRNA conjugate by tail vein injection, wherein mice in one group were administered with the above siRNA conjugate at an administration dose of 5 mg/kg, mice in one group were administered with the above siRNA conjugate at an administration dose of 2 mg/kg, and one group was administered with the above siRNA conjugate at an administration dose of 0.5 mg/kg, all administration volumes being 150 μL. The remaining group acted as PBS control group and was administered with the same volume of siRNA conjugate-free PBS solution. The day of administration was recorded as D0, and the mice were sacrificed on D14 after administration. Paragonadal fat and heart tissues were respectively taken and stored in the RNAlater. RNA extraction, reverse transcription, and real-time fluorescence quantitative detection were performed on various tissues according to the above method, and gene expression differences were calculated by the above ΔΔCt method.

[3] = system: target gene SOD1; experiment: Test Example 12: inhibitory activity of lipid conjugated siRNA sequence on SOD1 in mouse eyes (intravitreal administration); assay type: in vivo, C57BL/6J mice; details: D14
Protocol: as §1, §2, §3, §4
The present test example evaluated, by an evaluation method for inhibitory activity on a target gene in mice, the inhibitory activity of siRNA sequence RZ899091 with the sense strand with the NM074 conjugation at Position 4 and siRNA reference sequence RX899121 without vector conjugation on the target gene SOD1 of interest in mice.
6-8 Week-old C57BL/6J mice were randomly grouped by body weight, 5 in each group and 3 groups in total. Mice in each group were administered with the above siRNA conjugate by intravitreal administration to right eyes of the mice, with an administration dose of 7.5 μg per mouse, and an administration volume of 2 μL. PBS control group was administered with the same volume of siRNA conjugate-free PBS solution. The day of administration was recorded as D0, and the mice were sacrificed at D14 after administration. Administration-side ocular retina, choroid, cornea, sclera and other tissues were respectively taken and stored in the RNAlater. RNA extraction, reverse transcription, and real-time fluorescence quantitative detection were performed on various tissues according to the above method, and gene expression differences were calculated by the above ΔΔCt method.

[4] = mouse adipose tissues (paragonadal fat)

Row | Substance | inhibitory activity by different routes of administration ([1]; adipose tissues) | inhibitory activity by different routes of administration ([1]; heart) | Subcutaneous % Mean value of inhibition rate [1, 4] [%] | Intravenous % Mean value of inhibition rate [1, 4] [%] | Subcutaneous % Mean value of inhibition rate ([1]; mouse heart tissues) [%] | Intravenous % Mean value of inhibition rate ([1]; mouse heart tissues) [%] | 0.5 mg/kg % Mean value of inhibition rate [2, 4] [%] | 2 mg/kg % Mean value of inhibition rate [2, 4] [%] | 5 mg/kg % Mean value of inhibition rate [2, 4] [%] | dose dependency of inhibitory activity ([2]; mouse adipose tissues) | dose dependency of inhibitory activity ([2]; mouse heart tissues) | 0.5 mg/kg % Mean value of inhibition rate ([2]; mouse heart tissues) [%] | 2 mg/kg % Mean value of inhibition rate ([2]; mouse heart tissues) [%] | 5 mg/kg % Mean value of inhibition rate ([2]; mouse heart tissues) [%] | Choroid % Mean value of inhibition rate ([3]; choroid, intravitreal, right eye, 7.5 μg per mouse) [%] | Cornea and sclera % Mean value of inhibition rate ([3]; cornea and sclera, intravitreal, right eye, 7.5 μg per mouse) [%] | Kidney % Mean value of inhibition rate ([3]; kidney, intravitreal, right eye, 7.5 μg per mouse) [%] | Liver % Mean value of inhibition rate ([3]; liver, intravitreal, right eye, 7.5 μg per mouse) [%] | inhibitory activity compared with the reference sequence RX899121 without vector ([3]; mouse retina and choroid, intravitreal 7.5 μg per mouse) | Retina % Mean value of inhibition rate ([3]; retina, intravitreal, right eye, 7.5 μg per mouse) [%]
1 | RZ899090: siRNA sequence with the sense strand with the NM073 (C18) conjugation at Position 4; SEQ ID NO: 15 / 23 (sense UUUNAAUCCUCACUCUAAA; antisense UUUAGAGUGAGGAUUAAAAUG; NM073 (C18) conjugate at sense position 4; modified_base 1..2 OTHER; 2'-methoxy and 5'-thiophosphate modified nucleotides; modified_base 3 OTHER; 2'-methoxy modified nucleotide; modified_base 4 OTHER; n is the nucleotide analog NM073 as described in the disclosure.; modified_base 5..6 OTHER; 2'-methoxy modified nucleotides; modified_base 7..10 OTHER; 2'-fluoro modified nucleotides; modified_base 11..19 OTHER; modified_base 1 OTHER; 2'-methoxy and 5'-thiovinylphosphonate modified nucleotide; modified_base 2 OTHER; 2'-fluoro and 5'-thiophosphate modified nucleotide; modified_base 3..5 OTHER; …) | comparable inhibitory activity in the fat | comparable inhibitory activity in heart | 77.05 | 80.33 | 73.71 | 76.57 | 45.65 | 70.90 | 83.09 | distinct dose dependency | distinct dose dependency | 30.45 | 62.38 | 79.04 | – | – | – | – | – | –
2 | RZ899091: siRNA sequence with the sense strand with the NM074 (C20) conjugation at Position 4; SEQ ID NO: 16 / 23 (sense UUUNAAUCCUCACUCUAAA; antisense UUUAGAGUGAGGAUUAAAAUG; NM074 (C20) conjugate at sense position 4; modified_base 1..2 OTHER; 2'-methoxy and 5'-thiophosphate modified nucleotides; modified_base 3 OTHER; 2'-methoxy modified nucleotide; modified_base 4 OTHER; n is the synthetic nucleotide analog NM074 as described in the disclosure.; modified_base 5..6 OTHER; 2'-methoxy modified nucleotides; modified_base 7..10 OTHER; 2'-fluoro modified nucleotides; modified_base 11..19 OTHER; 2'-methoxy modified ; modified_base 1 OTHER; 2'-methoxy and 5'-thiovinylphosphonate modified nucleotide; modified_base 2 OTHER; 2'-fluoro and 5'-thiophosphate modified …) | – | – | – | – | – | – | – | – | – | – | – | – | – | – | 33.54 | −2.05 | 6.51 | −2.05 | superior inhibitory activity | 54.98
